One test addresses T1, cyclooxygenase-2 (Mus musculus, UniProt Q05769).
T1 construct: After seeding 2×10^6 cells of Raw 264.7 cell (obtained from Korean cell line bank, Deposit No. 40071) into each of 12-well plates; endogenous in cells; host or cells: Raw 264.7 (Korean cell line bank, Deposit No. 40071), aspirin-pretreated, induced with interferon and LPS
T1 sequence (Q05769 18-604): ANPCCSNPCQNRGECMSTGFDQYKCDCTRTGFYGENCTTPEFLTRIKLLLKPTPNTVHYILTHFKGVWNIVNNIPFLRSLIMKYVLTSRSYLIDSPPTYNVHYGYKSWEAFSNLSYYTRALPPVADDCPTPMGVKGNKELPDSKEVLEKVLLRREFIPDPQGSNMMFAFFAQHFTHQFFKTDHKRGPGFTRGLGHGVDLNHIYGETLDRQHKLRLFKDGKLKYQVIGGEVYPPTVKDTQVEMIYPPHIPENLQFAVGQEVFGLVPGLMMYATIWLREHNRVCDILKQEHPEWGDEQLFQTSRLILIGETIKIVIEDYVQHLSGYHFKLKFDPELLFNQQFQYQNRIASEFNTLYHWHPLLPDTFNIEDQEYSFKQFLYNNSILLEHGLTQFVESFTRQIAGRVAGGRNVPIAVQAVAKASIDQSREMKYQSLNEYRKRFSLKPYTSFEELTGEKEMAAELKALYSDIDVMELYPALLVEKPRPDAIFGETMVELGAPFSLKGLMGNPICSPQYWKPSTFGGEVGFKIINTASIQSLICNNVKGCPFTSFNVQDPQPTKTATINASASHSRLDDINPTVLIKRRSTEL
Description: Inhibitive effects against cyclooxygenase-2 using Raw 264.7 (interferon/LPS-induced PGE2, EIA). Particulars: Raw 264.7 cells, interferon + LPS, 18 hours. Type of test: cell-based. The procedure: In addition, the samples were treated with 100 units/ml of interferon ? and 100 ng/ml of lipopolysaccharide(LPS), and cultured for 18 hours. Then, the media was transferred to other test tubes and PGE 2 was quantitated by using EIA kit (Cayman Chemicals).
The % inhibition was calculated as follows, and the results were described in Table 1.
% inhibition={(PGE2 concentration compensated with interferon ? and LPS-PGE2 concentration compensated with analysis sample)/(PGE2 concentration compensated with interferon ? and LPS)}×100

For another test, the target named is T2, cyclooxygenase-1 (Homo sapiens, UniProt P23219).
T2 construct: A cultured U-937 (humane lymphoma cell with Deposit No. 21593, obtained from Korean cell line bank) was centrifuged to collect the pellet; endogenous in cells; host or cells: U-937 (Korean cell line bank, Deposit No. 21593)
T2 sequence (P23219 24-599): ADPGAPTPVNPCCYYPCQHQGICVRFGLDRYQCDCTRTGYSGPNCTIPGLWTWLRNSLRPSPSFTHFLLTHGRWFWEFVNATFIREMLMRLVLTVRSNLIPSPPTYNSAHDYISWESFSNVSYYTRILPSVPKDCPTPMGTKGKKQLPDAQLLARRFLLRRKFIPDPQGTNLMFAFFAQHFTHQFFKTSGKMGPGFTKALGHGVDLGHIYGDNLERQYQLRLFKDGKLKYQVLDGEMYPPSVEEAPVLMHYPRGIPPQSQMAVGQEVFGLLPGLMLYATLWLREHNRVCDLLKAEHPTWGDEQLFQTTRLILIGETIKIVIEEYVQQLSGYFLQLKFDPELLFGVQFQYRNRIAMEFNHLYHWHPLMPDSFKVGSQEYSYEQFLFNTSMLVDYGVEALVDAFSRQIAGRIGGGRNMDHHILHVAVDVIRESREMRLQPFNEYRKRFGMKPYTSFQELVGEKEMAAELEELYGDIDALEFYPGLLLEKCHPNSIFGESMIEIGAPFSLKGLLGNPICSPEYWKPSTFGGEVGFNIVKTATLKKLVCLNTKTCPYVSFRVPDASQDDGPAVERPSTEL
As to the kind of experiment: Inhibitive effects against cyclooxygenase-1 using U-937 (PGE2 quantitation). The test is classed as cell-based. Particulars: U-937 cells, arachidonic acid substrate. As to the method: Then, the pellet was diluted with 1×HBSS(Hank's balanced salt solution) at the concentration of 1×10^6 cells/ml, and 1 ml of them was transferred into each of 12-well plates.
Arachidonic acid as a substrate was dissolved in ethanol to prepare a stock solution with a concentration of 10 mM, followed by diluting with 1×HBSS to prepare the solution of 1 mM. 10 μl of 1 mM Arachidonic acid solution was added to each of the treated wells and the mixture was cultured at 37° C. in CO2 incubator for 30 minutes. The cell solution of each well was collected in the centrifuge tube and centrifuged at 4° C., for 5 minutes at 10,000 rpm. As PGE2 existed in the supernatant separated from collected cell, the concentration of PGE2 was quantitated by using monoclonal kit from Cayman Chemicals, and the concentration of samples and DMSO vehicle were compared to estimate the inhibition ratio (%) of each compound against cyclooxygenase-1. Ultimately, the inhibition effect against the cyclooxygenase-1 enzyme was obtained from the result.

Regarding `Cc1snc(-c2ccc(F)cc2)c1-c1ccc(S(N)(=O)=O)cc1` [Example 5, 4-[3-(4-fluorophenyl)-5-methyl-isothiazole-4-yl]-benzenesulfonamide], the “Inhibitory effects of cyclooxygenase (COX): COX-2 (30 nM)” value (“Inhibitory effects … (30 nM)” for short) on cyclooxygenase-2 is listed as 72.3 % inhibition. Further, the “Inhibitory effects of cyclooxygenase (COX): COX-1 (10 μM)” value (“Inhibitory effects … (10 μM)” for short) at cyclooxygenase-1 stood at 77.8 % inhibition.
For `Cc1snc(-c2ccc(F)cc2)c1-c1ccc(S(C)(=O)=O)cc1` [Example 9, 3-(4-fluorophenyl)-4-(4-methanesulfonyl)-5-methyl-isothiazole] the same measures were 65.1 % inhibition and 67.2 % inhibition.
Turning to `COc1ccc(-c2nsc(C)c2-c2ccc(S(N)(=O)=O)cc2)cc1` [Example 4, 4-[3-(4-methoxyphenyl)-5-methyl-isothiazole-4-yl]-benzenesulfonamide], the “Inhibitory effects … (30 nM)” value on cyclooxygenase-2 was determined as 67.7 % inhibition. At cyclooxygenase-1, the “Inhibitory effects … (10 μM)” value worked out at 79.5 % inhibition.
The corresponding values for `Cc1snc(-c2ccc(S(C)(=O)=O)cc2)c1-c1ccc(F)cc1` [Example 1, 4-(4-fluorophenyl)-3-(4-methanesulfonyl)-5-methyl-isothiazole] are 63.7 % inhibition and 29.8 % inhibition.
Turning to `Cc1snc(-c2ccccc2)c1-c1ccc(S(C)(=O)=O)cc1` [Example 6, 4-(4-methanesulfonylphenyl)-5-methyl-3-phenyl-isothiazole], the “Inhibitory effects … (30 nM)” value on cyclooxygenase-2 came out at 69.0 % inhibition. Also, the “Inhibitory effects … (10 μM)” value on cyclooxygenase-1 is 56.4 % inhibition.
The corresponding values for `COc1ccc(-c2nsc(C)c2-c2ccc(S(C)(=O)=O)cc2)cc1` [Example 8, 3-(4-methoxyphenyl)-4-(4-methanesulfonylphenyl)-5-methyl-isothiazole] are 76.4 % inhibition and 80.1 % inhibition.
For `Cc1snc(-c2ccc(Br)cc2)c1-c1ccc(S(N)(=O)=O)cc1` [Example 3, 4-[3-(4-bromophenyl)-5-methyl-isothiazole-4-yl]-benzenesulfonamide] the same measures were 58.5 % inhibition and 38.8 % inhibition.
The corresponding values for `Cc1snc(-c2ccc(Br)cc2)c1-c1ccc(S(C)(=O)=O)cc1` [Example 7, 3-(4-bromophenyl)-4-(4-methanesulfonylphenyl)-5-methyl-isothiazole] are 65.6 % inhibition and 45.7 % inhibition.
Consider `Cc1snc(-c2ccccc2)c1-c1ccc(S(N)(=O)=O)cc1` [Example 2, 4-(5-methyl-3-phenyl-isothiazole-4-yl)-benzenesulfonamide], for which the “Inhibitory effects … (30 nM)” value on cyclooxygenase-2 is reported as 60.2 % inhibition. In addition, the “Inhibitory effects … (10 μM)” value on cyclooxygenase-1 is given as 35.5 % inhibition.

The record behind these values is patent US6967213B2, “Isothiazole derivatives, process for the preparation thereof, and pharmaceutical composition including the same” (CJ Corp., priority 2003, dated 2005).
